Tests used:
[1] = Selectivity index,ratio of IC50 for ovine COX-1 to recombinant human COX-2
[2] = target: T1, Prostaglandin G/H synthase 1 (Ovis aries, UniProt P05979); test: Inhibition of ovine COX-1 preincubated for 5 mins followed by addition of arachidonic acid as substrate measured after 2 mins by fluorescence analysis
T1 sequence (P05979 whole entry): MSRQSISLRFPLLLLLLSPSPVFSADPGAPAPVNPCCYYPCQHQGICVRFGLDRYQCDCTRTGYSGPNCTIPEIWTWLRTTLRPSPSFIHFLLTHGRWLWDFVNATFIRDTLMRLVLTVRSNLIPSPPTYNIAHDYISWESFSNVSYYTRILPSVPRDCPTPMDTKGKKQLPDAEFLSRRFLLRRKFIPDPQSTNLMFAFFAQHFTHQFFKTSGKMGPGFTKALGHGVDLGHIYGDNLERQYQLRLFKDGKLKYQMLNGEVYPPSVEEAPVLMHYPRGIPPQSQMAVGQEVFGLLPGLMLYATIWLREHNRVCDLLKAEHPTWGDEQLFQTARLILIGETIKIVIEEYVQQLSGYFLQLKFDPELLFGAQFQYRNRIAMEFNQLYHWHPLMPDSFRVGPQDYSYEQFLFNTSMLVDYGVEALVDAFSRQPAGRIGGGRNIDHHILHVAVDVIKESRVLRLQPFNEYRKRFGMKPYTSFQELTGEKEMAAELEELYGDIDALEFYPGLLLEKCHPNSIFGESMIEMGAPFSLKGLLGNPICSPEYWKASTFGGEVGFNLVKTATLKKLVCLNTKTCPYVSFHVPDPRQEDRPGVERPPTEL

[3] = target: T2, Prostaglandin G/H synthase 2 (Homo sapiens, UniProt P35354)
T2 sequence (P35354 whole entry): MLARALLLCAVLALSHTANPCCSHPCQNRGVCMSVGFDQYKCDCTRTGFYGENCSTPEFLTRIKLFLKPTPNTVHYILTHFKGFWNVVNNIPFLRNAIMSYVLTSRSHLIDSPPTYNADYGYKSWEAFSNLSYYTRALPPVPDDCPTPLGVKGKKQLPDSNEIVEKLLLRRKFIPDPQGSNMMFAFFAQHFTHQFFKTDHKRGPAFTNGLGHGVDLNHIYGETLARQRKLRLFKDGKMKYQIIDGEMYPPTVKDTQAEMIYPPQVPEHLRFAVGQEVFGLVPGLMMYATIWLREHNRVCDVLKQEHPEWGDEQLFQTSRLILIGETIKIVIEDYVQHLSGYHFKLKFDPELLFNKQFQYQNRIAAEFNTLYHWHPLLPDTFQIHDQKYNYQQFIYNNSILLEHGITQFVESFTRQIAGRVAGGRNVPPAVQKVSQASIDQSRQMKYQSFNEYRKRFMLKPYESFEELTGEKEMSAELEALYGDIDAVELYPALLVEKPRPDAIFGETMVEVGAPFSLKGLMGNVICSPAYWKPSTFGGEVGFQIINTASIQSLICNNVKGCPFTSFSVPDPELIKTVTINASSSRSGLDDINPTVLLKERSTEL

[4] = target: COX-1/COX-2 (Homo sapiens) (UniProt P35354+P23219); test: Selectivity index, ratio of IC50 for COX-2 (unknown origin) to COX-1 (unknown origin)
Sequence of COX-1/COX-2 (Homo sapiens) (P23219 whole entry, looked up, one chain of several): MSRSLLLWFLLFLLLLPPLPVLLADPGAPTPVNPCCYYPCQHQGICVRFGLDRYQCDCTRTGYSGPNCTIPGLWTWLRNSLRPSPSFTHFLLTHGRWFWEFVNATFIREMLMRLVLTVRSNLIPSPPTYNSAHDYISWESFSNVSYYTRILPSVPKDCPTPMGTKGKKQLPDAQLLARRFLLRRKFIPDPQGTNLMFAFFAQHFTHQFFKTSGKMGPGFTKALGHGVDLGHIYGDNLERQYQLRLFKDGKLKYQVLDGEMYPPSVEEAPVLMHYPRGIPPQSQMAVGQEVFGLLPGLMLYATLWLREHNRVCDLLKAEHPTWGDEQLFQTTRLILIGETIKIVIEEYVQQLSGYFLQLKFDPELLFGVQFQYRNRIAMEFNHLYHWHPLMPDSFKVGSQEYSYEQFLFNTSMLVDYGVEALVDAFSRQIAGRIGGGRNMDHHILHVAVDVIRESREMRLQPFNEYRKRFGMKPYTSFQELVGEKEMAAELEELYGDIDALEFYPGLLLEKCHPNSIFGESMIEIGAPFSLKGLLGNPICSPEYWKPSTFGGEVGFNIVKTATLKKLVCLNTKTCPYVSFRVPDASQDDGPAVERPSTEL

[5] = target: T2, Prostaglandin G/H synthase 2; test: Inhibition of COX-2 (unknown origin)

Row | Compound | Ratio IC50 [1] | IC50 [2] | IC50 [3] | Ratio IC50 [4] | IC50 [5]
1 | CS(=O)(=O)c1ccc(-c2cc(C(F)(F)F)nc(NCc3ccc(I)cc3)n2)cc1 | > 100 | > 100 µM | 0.85 µM |  | 
2 | NS(=O)(=O)c1ccc(-n2nc(C(F)(F)F)cc2-c2ccc(I)cc2)cc1 |  |  |  | 10 | 8.2 µM
3 | CS(=O)(=O)c1ccc(-c2cc(C(F)(F)F)nc(OCc3ccc(I)cc3)n2)cc1 | > 40 | > 100 µM | 2.5 µM |  | 
4 | CS(=O)(=O)c1ccc(-c2cc(C(F)(F)F)nc(NCc3ccc(F)cc3)n2)cc1 |  | > 100 µM |  |  | 
5 | Cc1ccc(Nc2c(F)cccc2Cl)c(CC(=O)O)c1 [LUMIRACOXIB] |  |  |  |  | 0.06 µM
6 | CS(=O)(=O)c1ccc(-n2nc(C(F)(F)F)cc2-c2ccc(I)cc2)cc1 |  |  |  |  | 5.2 µM
7 | NS(=O)(=O)c1ccc(-c2cc(C(F)(F)F)nc(NCc3ccc(I)cc3)n2)cc1 | > 7.5 | > 100 µM | 13 µM |  | 
8 | Cc1ccc(Nc2c(F)cccc2I)c(CC(=O)O)c1 |  |  |  | 10 | 2.5 µM
